Values joined by “and” are separate entries in the source; they are usually repeats but may differ in a detail not shown here. Identical values can stand only once. “Also recorded” adds a separate entry of the source. Like-named read-outs stand apart in the source and are kept apart here.
Columns and labels:
[1] = target: T1, Thermotoga maritima mPPase (TmPPase) (Thermotoga maritima, UniProt Q9S5X0); experiment: TmPPase inhibition assay (96-well); type: biochemical; conditions: for IC50 / IC50 [CI95%]: TmPPase inhibition, NA = IC50 not assigned
From the text: We started from the previously identified 5‐arylisoxazole‐3‐carboxylate core present in 2–5 (Figure 1, highlighted in blue). Using KNIME,[30] we did a substructure search for commercial analogues in the ZINC12 database[31] […] Therefore, we manually picked compounds from a diverse collection provided by a single vendor (Ambinter, 174 matches for the substructure query). Out of the search results, we selected fifteen isoxazoles for testing in vitro. For all compounds in this manuscript, we tested activity using a 96‐well based assay that detects the inhibition of TmPPase.[22, 23, 24]
(§1) All commercially obtained compounds had purities >90 % as specified by the vendor. Synthesized compounds were >95 % pure as determined by LC–MS and characterized by HRMS. The inhibition assay was carried out with purified TmPPase as previously reported.[22, 23, 24] The best hits 17 a, 19 a, and 20 a, were validated using eight compound concentrations in triplicate. Further hit validation was done against the purified mPPase from P. falciparum (PfPPase‐VP1) expressed in baculovirus‐infected insect cells (expression, purification and further enzyme analysis will be described in more detail elsewhere). 4 μL of the purified PfPPase‐VP1 (2.0 mg/mL) was reactivated in 96 μL of reactivation buffer, i. e. 20 mM 2‐(N‐morpholino)ethanesulfonic acid (MES) pH 6.5, 3.5 % (v/v) glycerol, 2 mM dithiothreitol (DTT) and 12 mg/mL L‐α‐phosphatidylcholine from soybean. For each tube strip, 3 μL of the reactivated PfPPase‐VP1 was added into 12 μL of reaction buffer (200 mM Tris‐Cl pH 8.0, 8.0 mM MgCl2, 333 mM KCl, 67 mM NaCl) and 25 μL of inhibitor solution. The reaction mixtures were incubated at 50 °C for 5 min and the assay was started with the addition of 10 μL of 2 mM sodium pyrophosphate and further incubation at 50 °C for 45 min. The reaction termination and colour development were done as earlier described.[22, 23, 24]
6 IC50 plots from the TmPPase inhibition assay
The blue and black curves refer to compounds presented already in the main article and only shown in the Supporting Information, respectively. IC50, half maximal inhibitory concentration; CI95%, half maximal inhibitory concentration expressed as a 95% confidence interval (given in square brackets); […]
IC50 determinations were done using R 3.6.1[2] and the n-parameter logistic regression (nplr) package[3] version 0.1.7. In this package, the weighted nplr, given x (compound concentrations) and y values (activity) is calculated using Richard’s equation (eq 1) where B and T are the bottom and top asymptotes, respectively; b and xmid are the Hill slope and the x coordinate at inflexion point, respectively; and s is an asymmetric coefficient. The model parameters were simultaneously optimized using non-linear minimization, using a sum of squared errors.[4] The standard error of the model, defined as the squared error on the fitted values, is used to estimate a confidence interval at 95% on the predicted IC50 values.

[2] = test system: Plasmodium falciparum parasite strain 3D7; experiment: P. falciparum survival (growth) assay in erythrocyte culture, SYBR Green I; type: cell-based; conditions: Plasmodium falciparum, 3D7, Erythrocyte, 72 h, strain 3D7 in human erythrocytes
Experimental: Plasmodium falciparum parasite strain 3D7 was used for testing the antiplasmodial activity of the test compounds. The parasite was maintained in culture as described previously.[37] Briefly, parasites were cultured in O+ human erythrocytes at 5 % haematocrit in RPMI‐1640 medium supplemented with 0.5 % Albumax II (Gibco, Carlsbad, CA, USA), 200 μM hypoxanthine (Sigma, St. Louis, MO, USA) and 20 μg/mL gentamycin (Gibco). Parasites were synchronized with the sorbitol method as described.[38] Test compounds were dissolved in DMSO to make a stock solution of 10 mM or 50 mM. Two‐fold serial dilutions of the test compounds were made in the culture medium to cover either the range of 100 μM–100 nM or 400 μM–390 nM. 50 μL of each dilution were mixed in 96‐well plate with 150 μL of 2 % haematocrit of 0.5 % parasitemia (ring stage). Compound dilutions were also mixed with 150 μL of 2 % haematocrit of uninfected erythrocytes to serve as baselines for the activity of the coloured compounds. DMSO concentration in the highest compound concentration was 0.8 %. After 72 h incubation at 37 °C, the parasite growth was quantified using fluorescent SYBR Green I®‐based assay as described.[39] The half‐maximal inhibitory concentration (IC50) of the test compounds was assessed using the non‐linear regression fit model in Prism 7 (GraphPad Software, San Diego, CA, USA). The potent anti‐malarial drug, artemisinin, was used in parallel as a positive control. Each concentration of the test compounds was tested in duplicate and the assay was repeated three times. The mean and standard deviation of the three repeats were used to calculate the IC50.

[3] = target: purified mPPase from P. falciparum (PfPPase-VP1) (Plasmodium falciparum, UniProt Q8IKR1); experiment: PfPPase-VP1 inhibition assay; type: biochemical; conditions: three replicates
Experimental: Further hit validation was done against the purified mPPase from P. falciparum (PfPPase‐VP1) expressed in baculovirus‐infected insect cells. […] Overall, these compounds have higher IC50 values for PfPPase‐VP1 than for TmPPase.
as §1

[4] = target: T1, Thermotoga maritima mPPase (TmPPase); parameters: method as in PMID 31131322, PMID 32292570; conditions: previously reported inhibitors, read-out: IC50 [CI95%]; cited from earlier work
[5] = Colloidal aggregation by nephelometry under TmPPase assay conditions; type: physicochemical
Experimental: In order to rule out a cause of false positives, colloidal aggregation in the TmPPase model assay was evaluated for compounds 17 a, 19 a and 20 a at six concentrations (100 μM, 50 μM, 20 μM, 10 μM, 1 μM, and 0.1 μM) using the assay conditions (Figure S3).
3 Aggregation data for 17a, 19a and 20a (Figure S3)
Potential colloidal aggregation in the TmPPase model system was studied by nephelometric methods using Nepheloskan Ascent® (Labsystems, Finland). The original assay conditions were simulated, and the light scattering of potential aggregates in the mixture was studied at six concentrations (100 µM, 50 µM, 20 µM, 10 µM, 1 µM and 0.1 µM). Aggregation of the blank and compounds 17a, 19a and 20a was measured as quadruplicates from one independent experiment at three different voltages (300 V, 400 V and 500 V) at room temperature. […]
values at 10 µM, 1 µM and 0.1 µM were similar to those observed by the blank, indicating merely […]
Figure S3. Aggregation data for compounds 17a, 19a and 20a. The data, measured in relative nephelometric units (RNU), is shown as the mean ± SD and normalized to the blank.
(1 picture or pasted object on this page, not shown here)

[6] = IC50, purified PfPPase-VP1, 50 °C

purified mPPase from P. falciparum (PfPPase-VP1), sequence (Q8IKR1 entry or part of it): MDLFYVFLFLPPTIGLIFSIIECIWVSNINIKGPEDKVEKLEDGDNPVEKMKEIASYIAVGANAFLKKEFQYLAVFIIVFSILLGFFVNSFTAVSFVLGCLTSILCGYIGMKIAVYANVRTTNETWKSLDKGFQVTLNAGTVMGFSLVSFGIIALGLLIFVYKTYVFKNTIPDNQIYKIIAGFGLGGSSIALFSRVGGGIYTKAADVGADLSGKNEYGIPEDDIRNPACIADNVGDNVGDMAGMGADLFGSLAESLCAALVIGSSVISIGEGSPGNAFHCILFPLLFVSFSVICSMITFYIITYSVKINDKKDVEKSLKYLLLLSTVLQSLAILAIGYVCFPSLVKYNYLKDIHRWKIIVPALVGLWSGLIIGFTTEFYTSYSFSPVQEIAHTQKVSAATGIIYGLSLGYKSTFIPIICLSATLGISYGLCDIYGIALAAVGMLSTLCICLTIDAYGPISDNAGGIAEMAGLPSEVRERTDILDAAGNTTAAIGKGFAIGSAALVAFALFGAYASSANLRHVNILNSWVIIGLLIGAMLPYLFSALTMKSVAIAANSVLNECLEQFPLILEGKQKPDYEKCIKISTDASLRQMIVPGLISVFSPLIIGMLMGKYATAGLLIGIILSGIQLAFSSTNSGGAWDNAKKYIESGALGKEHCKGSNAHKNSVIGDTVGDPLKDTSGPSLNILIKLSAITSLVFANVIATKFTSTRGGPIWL
T1 sequence (Q9S5X0 whole entry): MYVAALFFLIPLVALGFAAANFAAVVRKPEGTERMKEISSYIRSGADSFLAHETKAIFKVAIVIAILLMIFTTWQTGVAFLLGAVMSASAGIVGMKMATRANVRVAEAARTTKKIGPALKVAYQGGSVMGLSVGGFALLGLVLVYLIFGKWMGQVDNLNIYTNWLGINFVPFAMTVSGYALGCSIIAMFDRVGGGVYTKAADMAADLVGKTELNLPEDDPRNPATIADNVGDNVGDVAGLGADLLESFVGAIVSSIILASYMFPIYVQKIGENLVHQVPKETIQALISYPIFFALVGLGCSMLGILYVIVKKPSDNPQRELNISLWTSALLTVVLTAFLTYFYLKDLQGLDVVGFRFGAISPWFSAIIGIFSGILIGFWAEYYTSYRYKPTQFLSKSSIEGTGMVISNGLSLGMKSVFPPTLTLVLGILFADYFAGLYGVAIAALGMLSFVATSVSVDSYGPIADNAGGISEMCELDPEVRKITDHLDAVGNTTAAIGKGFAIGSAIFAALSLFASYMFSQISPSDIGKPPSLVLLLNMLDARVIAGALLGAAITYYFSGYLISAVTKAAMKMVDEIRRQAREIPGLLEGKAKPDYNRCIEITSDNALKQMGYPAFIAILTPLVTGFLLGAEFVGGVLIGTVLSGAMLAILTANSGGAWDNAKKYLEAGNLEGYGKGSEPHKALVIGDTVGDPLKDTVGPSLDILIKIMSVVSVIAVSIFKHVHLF

## C=Cc1cc2nc(C(=O)NCCN)cc(-c3cc(C)cc(C)c3)n2n1 [21 a, N ‐(2‐Aminoethyl)‐7‐(3,5‐dimethylphenyl)‐2‐vinylpyrazolo[1,5‐a]pyrimidine‐5‐carboxamide]
[1]; read-out: IC50 [CI95%]
  IC50: 72 µM
[1]; TmPPase, 21 a versus 21 b
  fold higher inhibition than cyclopropyl-substituted analogue 21 b: 3.6 fold

## CCOC(=O)c1cc(-c2ccc(OC)c(S(=O)(=O)N3CCCSc4ccccc43)c2)on1 [compound 6]
[1]; read-out: IC50 [CI95%]
  IC50: 5.4 µM

## COc1cc(C2c3c(-c4cc(Cl)c(C)cc4O)n[nH]c3C(=O)N2Cc2ccccc2)ccc1O (stereo not shown) [compound 12]
[1]; read-out: IC50 [CI95%]
  IC50: < 25 µM and 25 µM
[2]
  IC50: 3.6 µM
[3]; purified PfPPase-VP1, 50 °C
  IC50: comparably weak
[3]; purified PfPPase-VP1, 50 °C, read-out: IC50
  IC50: 180 µM

## COc1ccccc1S(=O)(=O)Nc1ccc(N(C)C)cc1 [compound 11]
[1]; read-out: IC50 [CI95%]
  IC50: < 25 µM and 14 µM
[1]; computed from pIC50 and heavy atom count
  ligand efficiency (LE): 0.23

## O=C(O)c1cc(C2CC2)n2nc(Br)cc2n1 [16 b, 2‐Bromo‐7‐cyclopropylpyrazolo[1,5‐a]pyrimidine‐5‐carboxylic acid]
[1]
  IC50 [CI95%]: completely unsuccessful
[1]; listed as 16b
  IC50 [CI95%]: Inactive

## C=Cc1cc2nc(C(=O)Oc3ccccc3Br)cc(C3CC3)n2n1 [20 b, 2‐Bromophenyl 7‐cyclopropyl‐2‐vinylpyrazolo[1,5‐a]pyrimidine‐5‐carboxylate]
[1]
  IC50 [CI95%]: Inactive

## CCOC(=O)c1cc(-c2cc(C)cc(C)c2)n2nc(Br)cc2n1 [15 a, Ethyl 2‐bromo‐7‐(3,5‐dimethylphenyl)pyrazolo[1,5‐a]pyrimidine‐5‐carboxylate]
[1]
  IC50 [CI95%]: weak activity
[1]; read-out: IC50 [CI95%]
  IC50: 120 µM

## Nc1nc2ccc(CNC(=O)c3cc4ccccc4[nH]3)cc2s1 [compound 1]
[4]
  IC50: 2.7 µM

## Cc1cc(C)cc(-c2cc(C(=O)O)nc3cc(Br)nn23)c1 [16 a, 2‐Bromo‐7‐(3,5‐dimethylphenyl)pyrazolo[1,5‐a]pyrimidine‐5‐carboxylic acid]
[1]
  IC50 [CI95%]: inactive

## CCOC(=O)c1cc(-c2ccc(OC)c(S(=O)(=O)N3CCSc4ccccc43)c2)on1 [compound 9]
[1]
  IC50 [CI95%]: Inactive; also recorded: loss of all TmPPase inhibitory activity

## CCOC(=O)c1cc(-c2ccc(OC)c(S(=O)(=O)N3CC(C)Sc4ccccc43)c2)on1 (stereo not shown) [compound 10]
[1]
  IC50 [CI95%]: Inactive; also recorded: loss of all TmPPase inhibitory activity

## CCOC(=O)c1cc(-c2ccc(OC)c(S(=O)(=O)N3CC(C)CSc4ccccc43)c2)on1 (stereo not shown) [compound 8]
[1]
  IC50 [CI95%]: Inactive; also recorded: not tolerated

## O=C(Oc1ccccc1Br)c1cc(C2CC2)n2nc(Br)cc2n1 [17 b, 2‐Bromophenyl 2‐bromo‐7‐cyclopropylpyrazolo[1,5‐a]pyrimidine‐5‐carboxylate]
[1]
  IC50 [CI95%]: completely unsuccessful
[1]; listed as 17b
  IC50 [CI95%]: Inactive

## C=Cc1cc2nc(C(=O)NCCN)cc(C3CC3)n2n1 [21 b, N ‐(2‐Aminoethyl)‐7‐cyclopropyl‐2‐vinylpyrazolo[1,5‐a]pyrimidine‐5‐carboxamide]
[1]; read-out: IC50 [CI95%]
  IC50: 260 µM

## C=Cc1cc2nc(C(=O)O)cc(-c3cc(C)cc(C)c3)n2n1 [19 a, 7‐(3,5‐Dimethylphenyl)‐2‐vinylpyrazolo[1,5‐a]pyrimidine‐5‐carboxylic acid]
[1]; IC50 [CI95%]
  IC50: 14 µM
[5]; six concentrations 100–0.1 μM
  colloidal aggregation: no detectable aggregation
[3]; [6]
  IC50: 130 µM

## Cc1cccc(-c2cc(C(=O)Oc3ccccc3Br)no2)c1 [compound 3]
[4]
  IC50: 6.1 µM

## C=Cc1cc2nc(C(=O)O)cc(C3CC3)n2n1 [19 b, 7‐Cyclopropyl‐2‐vinylpyrazolo[1,5‐a]pyrimidine‐5‐carboxylic acid]
[1]
  IC50 [CI95%]: Inactive

## CCOC(=O)c1cc(-c2ccc(OC)c(S(=O)(=O)N3c4ccccc4CC3C)c2)on1 (stereo not shown) [compound 7]
[1]; read-out: IC50 [CI95%]
  IC50: 56 µM

## CC(C)(C)c1cccc(-c2cc(C(=O)Oc3ccccc3Br)no2)c1 [compound 4]
[4]
  IC50: 6.7 µM

## C=Cc1cc2nc(C(=O)OCC)cc(-c3cc(C)cc(C)c3)n2n1 [18 a, Ethyl 7‐(3,5‐dimethylphenyl)‐2‐vinylpyrazolo[1,5‐a]pyrimidine‐5‐carboxylate]
[1]; read-out: IC50 [CI95%]
  IC50: 54 µM
[1]; TmPPase, 18 a versus 15 a
  fold improvement in the inhibition compared to 2-bromo analogue 15 a: 2.2 fold

## CCOC(=O)c1cc(C2CC2)n2nc(Br)cc2n1 [15 b, Ethyl 2‐bromo‐7‐cyclopropylpyrazolo[1,5‐a]pyrimidine‐5‐carboxylate]
[1]
  IC50 [CI95%]: only slightly effective
[1]; read-out: IC50 [CI95%]
  IC50: 150 µM

## C=Cc1cc2nc(C(=O)OCC)cc(C3CC3)n2n1 [18 b, Ethyl 7‐cyclopropyl‐2‐vinylpyrazolo[1,5‐a]pyrimidine‐5‐carboxylate]
[1]
  IC50 [CI95%]: Inactive

## C=Cc1cc2nc(C(=O)Oc3ccccc3Br)cc(-c3cc(C)cc(C)c3)n2n1 [20 a, 2‐Bromophenyl 7‐(3,5‐dimethylphenyl)‐2‐vinylpyrazolo[1,5‐a]pyrimidine‐5‐carboxylate]
[1]; IC50 [CI95%]
  IC50: 18 µM
[5]; TmPPase assay conditions, six concentrations 100–0.1 μM
  concentration of aggregate formation: above 20 μM
[5]; at 10 µM, 1 µM and 0.1 µM
  colloidal aggregation: negligible/no detectable aggregation
[5]; at 100 µM, 50 µM and 20 µM
  colloidal aggregation: aggregate formation
[3]; [6]
  IC50: 74 µM

## CCOC(=O)c1cc(-c2ccc(OC)c(S(=O)(=O)Nc3ccc4c(c3)OCO4)c2)on1 [compound 5]
[4]
  IC50: 36 µM

From publication PMC8597055, “Exploration of Pyrazolo[1,5‐a]pyrimidines as Membrane‐Bound Pyrophosphatase Inhibitors” (Chemmedchem, 2021)
